These results are taken from US20140309184A1, “METHODS AND COMPOSITIONS FOR THE TREATMENT OF OVARIAN CANCER” (UNIVERSITY OF SOUTH ALABAMA, priority 2011, published 2014).

Molecules are shown by their SMILES.

One data set concerns A2780/CP70 cells. The data set can be described thus: Carboplatin IC50 with and without BMS-833923 in platinum resistant cell line. Type of data set: cell-based. As to the method: (§1) Considering the synergy described above and that the Hedgehog pathway is associated with cancer stem cell properties. In the effect of BMS-833923 plus carboplatin in two isogenic ovarian cancer cell lines specifically designed to evaluate platinum resistance mechanisms: A2780 (platinum sensitive) & A2780/CP70 (platinum resistant). Each cell line was evaluated to determine the IC50 dose of carboplatin to ensure a discernable difference in platinum treatment could be determined (FIG. 11A). The A2780/CP70 cell line required a 4-fold increase in carboplatin to reach IC50 (A2780/CP70=400 μM; A2780=100 μM). […] (FIG. 11B and FIG. 11C).

Another data set concerns A2780 cells. Put plainly: Carboplatin IC50 in platinum sensitive cell line. Type of data set: cell-based. Particulars: read-out: IC50 dose of carboplatin. As to the method:
as §1

The next data set deals with SKOV3 cells. Put plainly: MTS cell survival with BMS-833923 plus chemotherapy, Calcusyn combination index. Type of data set: cell-based. As to the method: An MTS in vitro assay was performed using chemotherapy agents commonly used for ovarian cancer (carboplatin, paclitaxel, gemcitabine, topotecan and liposomal doxorubicin) with or without BMS-833923. Ovarian cancer cells ES2, SKOV3, OV90 and TOV112D were seeded at a density of 4,000 cells/well in 96-well tissue culture plates. The following day, fresh medium was added to each well and treated with IC50 concentrations of BMS-833923 as well as the aforementioned chemotherapies and kept at 37° C. in a humidified 5% CO2 atmosphere. Every 24 hr, 20 μl/well of MTS reagent were added in 96 well plates and stored in 37° C. incubator for about 3 hr followed by absorbance reading at 490 nm. The assay was carried out up to 72 hrs at various concentrations described herein.
With a cross-diagonal multidrug treatment design, the combination index (CI) was calculated to determine mathematical synergy using the median effect method per Calcusyn software (Biosoft, Ferguson, Mo.). This software utilizes multiple drug dose-effect calculations using the Median Effect methods (Chou T. C., et al., Trends Pharmacol. Sci. 4, 450-454). […] The fraction of cells affected (Fa) by carboplatin and BMS-833923 was used to calculate dose response curves and the CI. Statistically Calcusyn quantifies phenomena such as synergism vs. additive effects as well as inhibition (antagonism). Calcusyn software defines synergy as a CI value<1 with the extent of synergism stratified as follows: Possible Synergy: 1.0-0.91; Moderate Synergy: […]; and Clear Synergy: 0.7-0.3. A CI=1 may be indicative of additivity; a CI>1 may be indicative of antagonism.
Combination indices were calculated to determine mathematical synergy using the median effect method per Calcusyn software (Biosoft, Ferguson, Mo.) as described above. Monolayers of SKOV3 cells were contacted with various chemotherapeutic agents, and BMS-833923 in combination with various chemotherapeutic agents. The chemotherapeutic agents included Carboplatin, Taxol™, Gemzar™, Topotecan (Hycamtim™), and Doxil™. The percentage survival of the contacted SKOV3 cells was measured over 72 hours. Synergistic effects were calculated statistically using Calcusyn™ Software. A combination index (CI) less than 1 indicates synergy; a CI equal to 1 indicates additivity; a CI greater than 1 indicated antagonism.
Combination indices were calculated to determine mathematical synergy using the median effect method per Calcusyn software (Biosoft, Ferguson, Mo.) as described above. […] Per prior definitions this represents Clear Synergy defined as CI<0.7. This level of synergy would result in a 2- to 14-fold reduction of carboplatin dose required with the addition of BMS-833923. (Table 5 and FIG. 9).
The dose reduction index (DRI) was determined for experimental values using the Calcusyn software package, with the relative CI and the fraction affected to determine the relative reduction in a dose to achieve similar effects with a single agent (Table 6).

A further data set has as its system A2780 xenografts. Put plainly: Xenograft tumor growth, carboplatin-sensitive model. Type of data set: in vivo. As to conditions: SCID mice; BMS-833923 100 mg/kg i.p. daily, Carboplatin 40 mg/kg i.p. twice a week, two weeks. As to the method: (§2) Female SCID mice 6-8 weeks old were inoculated i.p. with 5×10^6 A2780 or A2780/CP70 cells suspended in 200 μL PBS (PH 7.4). Seven days later when the tumor reached a size of greater than 150 mm^3, the mice were randomly divided into 4 groups (8 mice per group) as follows: (1) PBS-treated control; (2) BMS-833923 alone (100 mg/kg, i.p. daily, two weeks); (3) Carboplatin alone (40 mg/kg, i.p. twice a week, two weeks); (4) Combination of BMS-833923 and Carboplatin treatment. Mice were weighed and tumor diameters were measured with calipers every 2-3 days for 20 days. The tumor volumes (mm^3) were calculated as (W^2×L)/2, where W and L are the minor and major diameters (in millimeters), respectively.
(§3) Xenograft experiments were performed as described above. Carboplatin was dosed days 7, 11, 14, 18; BMS-833923 was dosed days 8 through 20. The experiment was terminated due to excessive tumor size in vehicle and BMS-833923 treatment groups.

A short description of data set [1]: Percent body weight change in xenograft experiments. Type of data set: in vivo, SCID mice. As to conditions: xenograft mice; BMS-833923 100 mg/kg i.p. daily, Carboplatin 40 mg/kg i.p. twice a week. As to the method:
as §2
Xenograft experiments were performed as described above. […] However, under such dosage (100 mg/kg, i.p. daily, for two weeks), treatment with BMS-833923 appeared to have little effect on the growth of A2780 or A2780/CP70 xenografts in vivo (FIG. 13). […] However, this dosage has little effect on the growth of CP2780 xenografts in vivo.

A further data set relates to CP2780 xenografts. The data set can be described thus: Xenograft tumor growth, carboplatin-resistant model. Type of data set: in vivo. As to conditions: SCID mice; BMS-833923 100 mg/kg i.p. daily, Carboplatin 40 mg/kg i.p. twice a week, two weeks. How it is done: as §2, §3
The CP2780 was derived from the A2780 Ovarian tumor xenograft model by selection for resistance to cisplatin. The CP2780 growth appeared to be more robust than observed for parental A2780 model (FIG. 12B). Average tumor volume doubling time for CP2780 was estimated at 2 days. Doubling time for parental A2780 tumor model was estimated at 3 days. […]

The subject of a further data set is SHH. The data set can be described thus: Quantitative real time PCR in carboplatin treated SKOV3 cells. Type of data set: cell-based. As to conditions: SKOV3, various concentrations of carboplatin. As to the method: SKOV3 cells were treated with various concentrations of carboplatin and the levels of SHH, Smo, PTCH, and Gli1 determined using quantitative real time PCR. Carboplatin treatment unregulated SHH (FIG. 14).
In general terms: Real-time PCR tracks product formation cycle by cycle.

A short description of data set [2]: MTD for combination therapy. Type of data set: in vivo. As to conditions: BMS-833923 + carboplatin given together; previously demonstrated. The source says:
Treatment with BMS-833923 appeared to have little effect on the growth of A2780 xenografts in vivo.

As to `N.N.O=C([O-])C1(C(=O)[O-])CCC1.[Pt+2]` [Carboplatin, carboplatin], the “increase in carboplatin to reach IC50, A2780/CP70 versus A2780” value in the data set with A2780/CP70 cells was 4 fold. For the same molecule, the IC50 (as a rule, the concentration that inhibits the measured activity by half) is 400 µM with A2780/CP70 cells (A2780/CP70 (platinum resistant), read-out: IC50 dose of carboplatin) and 100 µM in the data set with A2780 cells. Moreover, the “Carboplatin DRI” value in the data set with SKOV3 cells (fraction affected 16.6%) is listed as 14.869; in the data set on SKOV3 cells (fraction affected 29.1%), 8.06e+006; in the data set with SKOV3 cells (fraction affected 38.4%) it was 2.07e+010; in the data set on SKOV3 cells (fraction affected 41.8%), 2.45e+011. Moreover, the “Carboplatin single agent dose to achieve the fraction affected” value in the data set with SKOV3 cells (fraction affected 16.6%) is 892.1349 µM; in the data set with SKOV3 cells (fraction affected 29.1%), 5.642e+08 µM; in the data set with SKOV3 cells (fraction affected 38.4%), 1.243e+12 µM; with SKOV3 cells (fraction affected 41.8%), 1.716e+13 µM. In addition, in the data set on A2780 xenografts, the “effect on growth of A2780 xenografts in vivo” value is “inhibited growth”. In data set [1], the “Percent body weight change” value is recorded as “Combination<Carboplatin alone<BMS-833923 alone”. In addition, in the data set on CP2780 xenografts, the “effect on growth of CP2780 (A2780/CP70) xenografts in vivo” value is recorded as “little effect”. Besides, the “SHH mRNA level” value in the data set with SHH is listed as “unregulated”. For the same molecule, the “MTD for combination therapy” value in data set [2] worked out at 40 mg/kg.
